From patent US7642245B2, “Antibacterial compounds having a (pyrrole carboxamide)-(benzamide)-(imidazole carboxamide) motif” (Oscient Pharmaceuticals Corporation, priority 2002, dated 2010)

Tests used:
B. cereus ATCC 11778 = test: MIC, NCCLS broth microdilution; format: cell-based, Bacillus cereus; details: D = B. cereus ATCC 11778
Method in brief: (§1)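 Minimal inhibitory concentration determined by NCCLS broth microdilution in microtiter plates per documents M7-A4, M11-A4 and M27-T. S. aureus ATCC 27660 is a methicillin-resistant strain. The antifungal test on C. albicans followed the method recommended in the Manual of Clinical Microbiology (1995).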

C. albicans ATCC 38247 = test: MIC, antifungal assay; format: cell-based, Candida albicans; details: F = C. albicans ATCC 38247
Method in brief: as §1

E. faecalis ATCC 29212 = test: MIC, NCCLS broth microdilution; format: cell-based, Enterococcus faecalis; details: C = E. faecalis ATCC 29212
Method in brief: (§2)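 Compounds were serially diluted in broth and tested against each strain according to NCCLS guidelines, with MIC taken as the endpoint. C. albicans was assayed per the Manual of Clinical Microbiology.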

S. aureus ATCC 13709 = test: MIC, NCCLS broth microdilution; format: cell-based, Staphylococcus aureus; details: A = S. aureus ATCC 13709 (MSSA)
Method in brief: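 MIC values come from microtiter-plate broth microdilution run to NCCLS standards (M7-A4, M11-A4, M27-T). For C. albicans ATCC 38247, the antifungal procedure of the 1995 Manual of Clinical Microbiology was used instead.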

S. aureus ATCC 27660 = test: MIC, NCCLS broth microdilution; format: cell-based, Staphylococcus aureus; details: B = S. aureus ATCC 27660 (MRSA)
Method in brief: as §1

[1] = test system: M. catarrhalis (ATCC 25238); test: MIC, NCCLS broth microdilution; format: cell-based, Moraxella (now Branhamella) catarrhalis; details: H = M. catarrhalis (ATCC 25238)
Method in brief: as §1

E. coli ATCC 25922 = test: MIC, NCCLS broth microdilution; format: cell-based, Escherichia coli; details: G = E. coli ATCC 25922
Method in brief: as §2

S. pneumoniae ATCC 49619 = test: MIC, NCCLS broth microdilution; format: cell-based, Streptococcus pneumoniae; details: E = S. pneumoniae ATCC 49619
Method in brief: as §2

Row | Compound | Minimum Inhibitory Concentration (MIC) (B. cereus ATCC 11778) | Minimum Inhibitory Concentration (MIC) (C. albicans ATCC 38247) | Minimum Inhibitory Concentration (MIC) (E. faecalis ATCC 29212) | Minimum Inhibitory Concentration (MIC) (S. aureus ATCC 13709) | Minimum Inhibitory Concentration (MIC) (S. aureus ATCC 27660) | Minimum Inhibitory Concentration (MIC) [1] | Minimum Inhibitory Concentration (MIC) (E. coli ATCC 25922) | Minimum Inhibitory Concentration (MIC) (S. pneumoniae ATCC 49619)
1 | Cn1cc(NC(=O)c2cc3ccccc3cn2)cc1C(=O)Nc1ccc(C(=O)Nc2cn(C)c(C(=O)NCCN3CCN(CCOC(=O)CNC(=O)OC(C)(C)C)CC3)n2)cc1 [Compound A-61] | +++ (MIC ≦ 4 μg/mL) | >32 µg/mL | +++ (MIC ≦ 4 μg/mL) | +++ (MIC ≦ 4 μg/mL) | +++ (MIC ≦ 4 μg/mL) | +++ (MIC ≦ 4 μg/mL) | >32 µg/mL | +++ (MIC ≦ 4 μg/mL)
2 | Cn1cc(NC(=O)c2cc3ccccc3cn2)cc1C(=O)Nc1ccc(C(=O)Nc2cn(C)c(C(=O)NCCN3CCN(CCOC(=O)CN)CC3)n2)cc1 [Compound A-62] | +++ (MIC ≦ 4 μg/mL) | >32 µg/mL | +++ (MIC ≦ 4 μg/mL) | +++ (MIC ≦ 4 μg/mL) | +++ (MIC ≦ 4 μg/mL) | +++ (MIC ≦ 4 μg/mL) | >32 µg/mL | +++ (MIC ≦ 4 μg/mL)
3 | CC(O)CN1CCN(CCNC(=O)c2nc(NC(=O)c3ccc(NC(=O)c4cc(NC(=O)c5cc6ccccc6cn5)cn4C)cc3)cn2C)CC1 (stereo not drawn) [Compound A-63] | +++ (MIC ≦ 4 μg/mL) | >32 µg/mL | +++ (MIC ≦ 4 μg/mL) | +++ (MIC ≦ 4 μg/mL) | +++ (MIC ≦ 4 μg/mL) | +++ (MIC ≦ 4 μg/mL) | +++ (MIC ≦ 4 μg/mL) | +++ (MIC ≦ 4 μg/mL)
4 | Cn1cc(NC(=O)c2cc3ccccc3cn2)cc1C(=O)Nc1ccc(C(=O)Nc2cn(C)c(C(=O)NCCN3CCN(C(=O)CNC(=O)OC(C)(C)C)CC3)n2)cc1 [Compound A-64] | +++ (MIC ≦ 4 μg/mL) | >32 µg/mL | +++ (MIC ≦ 4 μg/mL) | +++ (MIC ≦ 4 μg/mL) | +++ (MIC ≦ 4 μg/mL) | ++ (4 < MIC < 12 μg/mL) | >32 µg/mL | +++ (MIC ≦ 4 μg/mL)
5 | Cn1cc(NC(=O)c2cc3ccccc3cn2)cc1C(=O)Nc1ccc(C(=O)Nc2cn(C)c(C(=O)NCCN3CCN(C(=O)CN)CC3)n2)cc1 [Compound A-65] | +++ (MIC ≦ 4 μg/mL) | ++ (4 < MIC < 12 μg/mL) | +++ (MIC ≦ 4 μg/mL) | +++ (MIC ≦ 4 μg/mL) | +++ (MIC ≦ 4 μg/mL) | +++ (MIC ≦ 4 μg/mL) | >32 µg/mL | +++ (MIC ≦ 4 μg/mL)
6 | Cn1cc(NC(=O)c2cc3ccccc3cn2)cc1C(=O)Nc1ccc(C(=O)Nc2cn(C)c(C(=O)NCCN3CCC(OC(=O)CNC(=O)OC(C)(C)C)CC3)n2)cc1 [Compound A-66] | +++ (MIC ≦ 4 μg/mL) | >32 µg/mL | +++ (MIC ≦ 4 μg/mL) | +++ (MIC ≦ 4 μg/mL) | +++ (MIC ≦ 4 μg/mL) | +++ (MIC ≦ 4 μg/mL) | >32 µg/mL | +++ (MIC ≦ 4 μg/mL)
7 | Cn1cc(NC(=O)c2cc3ccccc3cn2)cc1C(=O)Nc1ccc(C(=O)Nc2cn(C)c(C(=O)NCCN3CCC(OC(=O)CN)CC3)n2)cc1 [Compound A-67] | +++ (MIC ≦ 4 μg/mL) | ++ (4 < MIC < 12 μg/mL) | +++ (MIC ≦ 4 μg/mL) | +++ (MIC ≦ 4 μg/mL) | +++ (MIC ≦ 4 μg/mL) | +++ (MIC ≦ 4 μg/mL) | + (12 ≦ MIC ≦ 32 μg/mL) | +++ (MIC ≦ 4 μg/mL)
8 | Cn1cc(NC(=O)c2cc3ccccc3cn2)cc1C(=O)Nc1ccc(C(=O)Nc2cn(C)c(C(=O)NCCN3CCC(OC(=O)CNS(=O)(=O)O)CC3)n2)cc1 [Compound A-68] | +++ (MIC ≦ 4 μg/mL) | >32 µg/mL | +++ (MIC ≦ 4 μg/mL) | +++ (MIC ≦ 4 μg/mL) | +++ (MIC ≦ 4 μg/mL) | >32 µg/mL | >32 µg/mL | + (12 ≦ MIC ≦ 32 μg/mL)
9 | Cn1cc(NC(=O)c2cc3ccccc3cn2)cc1C(=O)Nc1ccc(C(=O)Nc2cn(C)c(C(=O)NCCN3CCC(O)C3)n2)cc1 (stereo not drawn) [Compound A-70] | +++ (MIC ≦ 4 μg/mL) | >32 µg/mL | +++ (MIC ≦ 4 μg/mL) | +++ (MIC ≦ 4 μg/mL) | +++ (MIC ≦ 4 μg/mL) | +++ (MIC ≦ 4 μg/mL) | +++ (MIC ≦ 4 μg/mL) | +++ (MIC ≦ 4 μg/mL)
10 | Cn1cc(NC(=O)c2cc3ccccc3cn2)cc1C(=O)Nc1ccc(C(=O)Nc2cn(C)c(C(=O)NCCN3CCCC(O)C3)n2)cc1 (stereo not drawn) [Compound A-72] | +++ (MIC ≦ 4 μg/mL) | >32 µg/mL | +++ (MIC ≦ 4 μg/mL) | +++ (MIC ≦ 4 μg/mL) | +++ (MIC ≦ 4 μg/mL) | +++ (MIC ≦ 4 μg/mL) | >32 µg/mL | +++ (MIC ≦ 4 μg/mL)
11 | Cn1cc(NC(=O)c2cc3ccccc3cn2)cc1C(=O)Nc1ccc(C(=O)Nc2cn(C)c(C(=O)NCCN3CCN(CCOC(=O)CNS(=O)(=O)O)CC3)n2)cc1 [Compound A-73] | +++ (MIC ≦ 4 μg/mL) | >32 µg/mL | +++ (MIC ≦ 4 μg/mL) | +++ (MIC ≦ 4 μg/mL) | +++ (MIC ≦ 4 μg/mL) | >32 µg/mL | >32 µg/mL | +++ (MIC ≦ 4 μg/mL)
12 | Cn1cc(NC(=O)c2cc3ccccc3cn2)cc1C(=O)Nc1ccc(C(=O)Nc2cn(C)c(C(=O)NCCN3CCC(OC(=O)CNC(=O)C4OC(O)C(O)C(O)C4O)CC3)n2)cc1 (stereo not drawn) [Compound A-74] | +++ (MIC ≦ 4 μg/mL) | >32 µg/mL | +++ (MIC ≦ 4 μg/mL) | +++ (MIC ≦ 4 μg/mL) | +++ (MIC ≦ 4 μg/mL) | >32 µg/mL | >32 µg/mL | +++ (MIC ≦ 4 μg/mL)
13 | Cn1cc(NC(=O)c2cc3ccccc3cn2)cc1C(=O)Nc1ccc(C(=O)Nc2cn(C)c(C(=O)NCCN3CCN(C(=O)C4OC(O)C(O)C(O)C4O)CC3)n2)cc1 (stereo not drawn) [Compound A-75] | +++ (MIC ≦ 4 μg/mL) | >32 µg/mL | +++ (MIC ≦ 4 μg/mL) | +++ (MIC ≦ 4 μg/mL) | +++ (MIC ≦ 4 μg/mL) | >32 µg/mL | >32 µg/mL | +++ (MIC ≦ 4 μg/mL)
14 | Cn1cc(NC(=O)c2cc3ccccc3cn2)cc1C(=O)Nc1ccc(C(=O)Nc2cn(C)c(C(=O)NCCN3CCN(CCOC(=O)CNC(=O)C4OC(O)C(O)C(O)C4O)CC3)n2)cc1 (stereo not drawn) [Compound A-76] | +++ (MIC ≦ 4 μg/mL) | >32 µg/mL | +++ (MIC ≦ 4 μg/mL) | +++ (MIC ≦ 4 μg/mL) | +++ (MIC ≦ 4 μg/mL) | +++ (MIC ≦ 4 μg/mL) | >32 µg/mL | +++ (MIC ≦ 4 μg/mL)
15 | CC(S)CN1CCN(CCNC(=O)c2nc(NC(=O)c3ccc(NC(=O)c4cc(NC(=O)c5cc6ccccc6cn5)cn4C)cc3)cn2C)CC1 (stereo not drawn) [Compound A-77] | +++ (MIC ≦ 4 μg/mL) | >32 µg/mL | +++ (MIC ≦ 4 μg/mL) | +++ (MIC ≦ 4 μg/mL) | ++ (4 < MIC < 12 μg/mL) | + (12 ≦ MIC ≦ 32 μg/mL) | >32 µg/mL | +++ (MIC ≦ 4 μg/mL)
